Test results taken from PubChem BioAssay AID2060501 (Molecular Pharmacology Branch, DTP, NCI, 2025).
pIC50: −log10 of the molar value.

System: 282377-053-R-J1-PDC complex spheroids, viability
Test: Anticancer human tumor 282377-053-R-J1-PDC patient-derived colon adenocarcinoma cell line growth inhibition [GQUAD]
Settings: for pIC50: curve of first compound; for viability, T/C: stronger effect = lower value
Outline: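 Multi-cell-type spheroids of tumor cells with HUVEC and mesenchymal stem cells, treated with drug combinations. Concentrations descend in half-log steps from near clinical Cmax, or from 10 microM where Cmax is unknown; viability read-out.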

[1] = second compound 0.0316 µM, first compound 0.0316 µM
[2] = second compound 0.0316 µM, first compound 0.1 µM
[3] = second compound 0.0316 µM, first compound 0.316 µM
[4] = second compound 0.0316 µM, first compound 1 µM
[5] = second compound 0.0316 µM, first compound 3.16 µM
[6] = second compound 0.0316 µM, first compound 10 µM
[7] = second compound 0.1 µM, first compound 0.0316 µM
[8] = second compound 0.1 µM, first compound 0.1 µM
[9] = second compound 0.1 µM, first compound 0.316 µM
[10] = second compound 0.1 µM, first compound 1 µM
[11] = second compound 0.1 µM, first compound 3.16 µM
[12] = second compound 0.1 µM, first compound 10 µM
[13] = second compound 0.316 µM, first compound 0.0316 µM
[14] = second compound 0.316 µM, first compound 0.1 µM
[15] = second compound 0.316 µM, first compound 0.316 µM
[16] = second compound 0.316 µM, first compound 1 µM
[17] = second compound 0.316 µM, first compound 3.16 µM
[18] = second compound 0.316 µM, first compound 10 µM
[19] = second compound 1 µM, first compound 0.0316 µM
[20] = second compound 1 µM, first compound 0.1 µM
[21] = second compound 1 µM, first compound 0.316 µM
[22] = second compound 1 µM, first compound 1 µM
[23] = second compound 1 µM, first compound 3.16 µM
[24] = second compound 1 µM, first compound 10 µM
[25] = second compound 3.16 µM, first compound 0.0316 µM
[26] = second compound 3.16 µM, first compound 0.1 µM
[27] = second compound 3.16 µM, first compound 0.316 µM
[28] = second compound 3.16 µM, first compound 1 µM
[29] = second compound 3.16 µM, first compound 3.16 µM
[30] = second compound 3.16 µM, first compound 10 µM
[31] = second compound 10 µM, first compound 0.0316 µM
[32] = second compound 10 µM, first compound 0.1 µM
[33] = second compound 10 µM, first compound 0.316 µM
[34] = second compound 10 µM, first compound 1 µM
[35] = second compound 10 µM, first compound 3.16 µM
[36] = second compound 10 µM, first compound 10 µM
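Note: spheroids exposed to compounds for 7 days before readout.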
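Throughout, for viability, T/C: percent of vehicle DMSO control viability with 100% = untreated-like growth.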

## C#Cc1c(F)ccc2cc(O)cc(-c3ncc4c(N5CC6CCC(C5)N6)nc(OCC56CCCN5CC(F)C6)nc4c3F)c12 (stereo not drawn) + Cc1[nH]c2ccc(F)cc2c1-c1nc2c3cccnc3c3ncccc3c2[nH]1
Second compound 0.0316 µM
  pIC50: 5.72
Second compound 0.1 µM
  pIC50: 5.89
Second compound 0.316 µM
  pIC50: 5.86
Second compound 1 µM
  pIC50: 6.08
Second compound 3.16 µM
  pIC50: 7.44
Second compound 10 µM
  pIC50: > 7.50
[1]
  viability, T/C: 108%
[2]
  viability, T/C: 95.5%
[3]
  viability, T/C: 82.2%
[4]
  viability, T/C: 83.2%
[5]
  viability, T/C: 20.6%
[6]
  viability, T/C: 26%
[7]
  viability, T/C: 104%
[8]
  viability, T/C: 114%
[9]
  viability, T/C: 98.3%
[10]
  viability, T/C: 59.6%
[11]
  viability, T/C: 13.2%
[12]
  viability, T/C: 22.9%
[13]
  viability, T/C: 96.9%
[14]
  viability, T/C: 102%
[15]
  viability, T/C: 90.4%
[16]
  viability, T/C: 64.4%
[17]
  viability, T/C: 9.13%
[18]
  viability, T/C: 13.3%
[19]
  viability, T/C: 105%
[20]
  viability, T/C: 110%
[21]
  viability, T/C: 102%
[22]
  viability, T/C: 39.5%
[23]
  viability, T/C: 6.79%
[24]
  viability, T/C: 6.81%
[25]
  viability, T/C: 52.7%
[26]
  viability, T/C: 28.4%
[27]
  viability, T/C: 15.7%
[28]
  viability, T/C: 3.57%
[29]
  viability, T/C: 1.91%
[30]
  viability, T/C: 1.84%
[31]
  viability, T/C: 34.4%
[32]
  viability, T/C: 15.4%
[33]
  viability, T/C: 14.7%
[34]
  viability, T/C: 2.45%
[35]
  viability, T/C: 1.52%
[36]
  viability, T/C: 1.43%

## CCCS(=O)(=O)Nc1ccc(F)c(C(=O)c2c[nH]c3ncc(-c4ccc(Cl)cc4)cc23)c1F + Cc1[nH]c2ccc(F)cc2c1-c1nc2c3cccnc3c3ncccc3c2[nH]1
Second compound 0.0316 µM
  pIC50: 5.66
Second compound 0.1 µM
  pIC50: 5.67
Second compound 0.316 µM
  pIC50: 5.67
Second compound 1 µM
  pIC50: 5.69
Second compound 3.16 µM
  pIC50: 6.11
Second compound 10 µM
  pIC50: > 7.50
[1]
  viability, T/C: 95.9%
[2]
  viability, T/C: 90.4%
[3]
  viability, T/C: 95.1%
[4]
  viability, T/C: 92.5%
[5]
  viability, T/C: 30.9%
[6]
  viability, T/C: 14.5%
[7]
  viability, T/C: 130%
[8]
  viability, T/C: 114%
[9]
  viability, T/C: 89%
[10]
  viability, T/C: 81.2%
[11]
  viability, T/C: 31.7%
[12]
  viability, T/C: 13.2%
[13]
  viability, T/C: 96.4%
[14]
  viability, T/C: 83.7%
[15]
  viability, T/C: 81.8%
[16]
  viability, T/C: 91.4%
[17]
  viability, T/C: 30.5%
[18]
  viability, T/C: 16.1%
[19]
  viability, T/C: 108%
[20]
  viability, T/C: 120%
[21]
  viability, T/C: 74.3%
[22]
  viability, T/C: 93.2%
[23]
  viability, T/C: 23.9%
[24]
  viability, T/C: 11.8%
[25]
  viability, T/C: 89.2%
[26]
  viability, T/C: 66.7%
[27]
  viability, T/C: 71.9%
[28]
  viability, T/C: 45.3%
[29]
  viability, T/C: 9.06%
[30]
  viability, T/C: 6.19%
[31]
  viability, T/C: 33.6%
[32]
  viability, T/C: 31.9%
[33]
  viability, T/C: 23.1%
[34]
  viability, T/C: 22.8%
[35]
  viability, T/C: 3.93%
[36]
  viability, T/C: 4.48%

## Nc1ccn(C2OC(CO)C(O)C2(F)F)c(=O)n1 (stereo not drawn) + Cc1[nH]c2ccc(F)cc2c1-c1nc2c3cccnc3c3ncccc3c2[nH]1
Second compound 0.0316 µM
  pIC50: 6.68
Second compound 0.1 µM
  pIC50: 6.65
Second compound 0.316 µM
  pIC50: 6.67
Second compound 1 µM
  pIC50: 6.64
Second compound 3.16 µM
  pIC50: 7.09
Second compound 10 µM
  pIC50: > 7.50
[1]
  viability, T/C: 119%
[2]
  viability, T/C: 74.1%
[3]
  viability, T/C: 35.8%
[4]
  viability, T/C: 30.9%
[5]
  viability, T/C: 29.4%
[6]
  viability, T/C: 21.1%
[7]
  viability, T/C: 106%
[8]
  viability, T/C: 81.1%
[9]
  viability, T/C: 35.8%
[10]
  viability, T/C: 29.5%
[11]
  viability, T/C: 31.8%
[12]
  viability, T/C: 18.9%
[13]
  viability, T/C: 97%
[14]
  viability, T/C: 86.3%
[15]
  viability, T/C: 32%
[16]
  viability, T/C: 28.4%
[17]
  viability, T/C: 26.7%
[18]
  viability, T/C: 20.5%
[19]
  viability, T/C: 105%
[20]
  viability, T/C: 74.4%
[21]
  viability, T/C: 37.4%
[22]
  viability, T/C: 30.1%
[23]
  viability, T/C: 23%
[24]
  viability, T/C: 16%
[25]
  viability, T/C: 74.8%
[26]
  viability, T/C: 44.5%
[27]
  viability, T/C: 18.8%
[28]
  viability, T/C: 14.9%
[29]
  viability, T/C: 17.6%
[30]
  viability, T/C: 9.41%
[31]
  viability, T/C: 39.2%
[32]
  viability, T/C: 28.9%
[33]
  viability, T/C: 16.2%
[34]
  viability, T/C: 10.3%
[35]
  viability, T/C: 10.9%
[36]
  viability, T/C: 8.65%

## O=c1[nH]cc(F)c(=O)[nH]1 + Cc1[nH]c2ccc(F)cc2c1-c1nc2c3cccnc3c3ncccc3c2[nH]1
Second compound 0.0316 µM
  pIC50: < 5.00
Second compound 0.1 µM
  pIC50: < 5.00
Second compound 0.316 µM
  pIC50: < 5.00
Second compound 1 µM
  pIC50: < 5.00
Second compound 3.16 µM
  pIC50: < 5.00
Second compound 10 µM
  pIC50: > 7.50
[1]
  viability, T/C: 92.8%
[2]
  viability, T/C: 104%
[3]
  viability, T/C: 126%
[4]
  viability, T/C: 88.8%
[5]
  viability, T/C: 78.2%
[6]
  viability, T/C: 74%
[7]
  viability, T/C: 110%
[8]
  viability, T/C: 111%
[9]
  viability, T/C: 114%
[10]
  viability, T/C: 87.5%
[11]
  viability, T/C: 84.1%
[12]
  viability, T/C: 82%
[13]
  viability, T/C: 115%
[14]
  viability, T/C: 106%
[15]
  viability, T/C: 93.7%
[16]
  viability, T/C: 95.1%
[17]
  viability, T/C: 75.8%
[18]
  viability, T/C: 69.3%
[19]
  viability, T/C: 108%
[20]
  viability, T/C: 112%
[21]
  viability, T/C: 117%
[22]
  viability, T/C: 91.2%
[23]
  viability, T/C: 76.4%
[24]
  viability, T/C: 68.4%
[25]
  viability, T/C: 75.7%
[26]
  viability, T/C: 80.2%
[27]
  viability, T/C: 72%
[28]
  viability, T/C: 49.9%
[29]
  viability, T/C: 58.8%
[30]
  viability, T/C: 54.1%
[31]
  viability, T/C: 41.1%
[32]
  viability, T/C: 40.5%
[33]
  viability, T/C: 50.8%
[34]
  viability, T/C: 42%
[35]
  viability, T/C: 40%
[36]
  viability, T/C: 34.4%
